Tested on: 883617-216-R-J1-PDC tumor spheroids, viability
Assay: Anticancer human tumor 883617-216-R-J1-PDC patient-derived bladder carcinoma cell line growth inhibition [PI3K]
Conditions: spheroids with HUVEC and MSC; for IC50: curve of first compound; for viability, T/C: stronger effect = lower value
Description: Combinatorial screen of targeted agents with the PI3K inhibitors inavolisib, alpelisib, duvelisib, and copanlisib in multi-cell type tumor spheroids
A high-throughput screen of multi-cell type tumor spheroids was designed to identify active combinations of targeted small molecules and PI3K pathway inhibitors. Complex spheroids include a stromal component modeled by human endothelial cells (HUVEC) and fibroblasts modeled by human mesenchymal stem cells (MSCs). The concentration ranges selected for each drug and investigational agent were based upon clinically achievable concentrations if the clinical Cmax of the agent was known.
Compounds. The drugs and investigational agents: inavolisib (NSC800729), alpelisib (NSC765974), duvelisib (NSC772469), copanlisib (NSC816437), ipatasertib (NSC767898), afuresertib (NSC778305), talazoparib (NSC767125), sapanisertib (NSC764658), selumetinib (NSC741078), tovorafenib (DAY101, NSC766906), vemurafenib (NSC761431), ravoxertinib (NSC781343), sotorasib (NSC818433), MRTX1133 (NSC 836407), abemaciclib (NSC 768073), palbociclib (NSC758247), venetoclax (NSC 766270), SY5609 (NSC837396), enzalutamide (NSC755605), and darolutamide (NSC825331), were obtained from the National Cancer Institute (NCI) Developmental Therapeutics Program Chemical Repository. The FDA-approved anticancer drug set is available from the NCI Developmental Therapeutics Program. […] The stock solutions were prepared in dimethyl sulfoxide (DMSO, Sigma-Aldrich, St. Louis, MO, cat. D2650) at 800-fold the tested concentration and stored at -70 degrees C prior to their use. All drugs and investigational agents were tested over a range starting from a high concentration at or near the clinical Cmax and decreasing in half-log increments. If the clinical Cmax for an agent had not been determined, the highest concentration tested was 10 microM.
Cell Culture. All cells were maintained in an incubator at 37 degrees C and 5% CO2 with 95% humidity. The PDC lines were cultured according to standard operating procedures established by the NCI PDMR (https://pdmr.cancer.gov/sops/default.htm). All PDCs were thawed and cultured in Matrigel-coated flasks prepared with a working solution of 1X Ham's F-12 nutrient mix, without supplementation (Invitrogen, Waltham, MA, cat. 11765054), 100 U/mL penicillin-streptomycin (Invitrogen, cat. 15140122), and 2.5% Matrigel (Corning Inc., Corning, NY, cat. 354248) for the first three passages. The 354836-022-R-J1-PDC, 475296-252-R-J1-PDC, and 997726-040-R-J2-PDC lines were cultured in 6A media, which includes advanced DMEM/F-12 (Thermo Fisher Scientific, cat. 12634028), 10 mM HEPES (Thermo Fisher Scientific, cat. 15630080), 1X GlutaMAX supplement (Thermo Fisher Scientific, cat. 35050061), 0.1 mg/mL primocin (InvivoGen, San Diego, CA, cat. ant-pm-2), 10% defined fetal bovine serum, heat inactivated (HyClone Laboratories Inc., Logan, UT, cat. SH30070.03HI), 50% L-WRN conditioned media (ATCC, cat. CRL-3276), 1.25 mM N-Acetyl-L-cysteine (Sigma-Aldrich, cat. A9165), 10 mM nicotinamide (Sigma-Aldrich, cat. N0636), 1X B-27 supplement (Thermo Fisher Scientific, cat. 17504044), 1X N-2 supplement (Thermo Fisher Scientific, cat. 17502048), and 10 microM Y-27632 dihydrochloride (Tocris Bioscience, Bristol, United Kingdom, cat. 1254). The 624824-186-R-J2-PDC line was cultured in 6C/Colon 1B media, which includes all 6A media components plus 50 ng/mL human EGF recombinant protein (Thermo Fisher Scientific, cat. PHG0311). […]

[1] = second compound 0.00316 µM, first compound 0.0316 µM
[2] = second compound 0.00316 µM, first compound 0.1 µM
[3] = second compound 0.01 µM, first compound 0.0316 µM
[4] = second compound 0.01 µM, first compound 0.1 µM
[5] = second compound 0.0316 µM, first compound 0.0316 µM
[6] = second compound 0.0316 µM, first compound 0.1 µM
[7] = second compound 0.1 µM, first compound 0.0316 µM
[8] = second compound 0.1 µM, first compound 0.1 µM
[9] = second compound 0.316 µM, first compound 0.0316 µM
[10] = second compound 0.316 µM, first compound 0.1 µM
[11] = second compound 1 µM, first compound 0.0316 µM
[12] = second compound 1 µM, first compound 0.1 µM
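Further: spheroids exposed to agents for 7 days before the viability read.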

`CC(=O)c1c(C)c2cnc(Nc3ccc(N4CCNCC4)cn3)nc2n(C2CCCC2)c1=O` + CC(Nc1ccc2c(c1)OCCn1cc(N3C(=O)OCC3C(F)F)nc1-2)C(N)=O gave an IC50 (second compound 0.00316 µM) of 74.3 nM, an IC50 (second compound 0.01 µM) of 54.3 nM and an IC50 (second compound 0.0316 µM) of 35.9 nM. It also gave an IC50 (second compound 0.1 µM) of 0.515 nM, an IC50 (second compound 0.316 µM) of less than 0.316 nM and an IC50 (second compound 1 µM) of less than 0.316 nM. The viability, T/C (second compound 0.00316 µM, first compound 0.000316 µM) was 99.1%, the viability, T/C (second compound 0.00316 µM, first compound 0.001 µM) was 97.3% and the viability, T/C (second compound 0.00316 µM, first compound 0.00316 µM) was 86.7%. For the same compound, the viability, T/C (second compound 0.00316 µM, first compound 0.01 µM) was 84.1%, the viability, T/C [1] was 67% and the viability, T/C [2] was 43.6%. For the same compound, the viability, T/C (second compound 0.01 µM, first compound 0.000316 µM) was 78.1%, the viability, T/C (second compound 0.01 µM, first compound 0.001 µM) was 85.7% and the viability, T/C (second compound 0.01 µM, first compound 0.00316 µM) was 82%. The viability, T/C (second compound 0.01 µM, first compound 0.01 µM) was 78.7%, the viability, T/C [3] was 55.9% and the viability, T/C [4] was 43.4%. The viability, T/C (second compound 0.0316 µM, first compound 0.000316 µM) was 74.2%, the viability, T/C (second compound 0.0316 µM, first compound 0.001 µM) was 78.9% and the viability, T/C (second compound 0.0316 µM, first compound 0.00316 µM) was 67.5%. It also gave a viability, T/C (second compound 0.0316 µM, first compound 0.01 µM) of 69.8%, a viability, T/C [5] of 51.2% and a viability, T/C [6] of 34.9%. It also gave a viability, T/C (second compound 0.1 µM, first compound 0.000316 µM) of 52%, a viability, T/C (second compound 0.1 µM, first compound 0.001 µM) of 47.8% and a viability, T/C (second compound 0.1 µM, first compound 0.00316 µM) of 42.8%. The viability, T/C (second compound 0.1 µM, first compound 0.01 µM) was 42.6%, the viability, T/C [7] was 32.2% and the viability, T/C [8] was 26.1%. For the same compound, the viability, T/C (second compound 0.316 µM, first compound 0.000316 µM) was 33.9%, the viability, T/C (second compound 0.316 µM, first compound 0.001 µM) was 26.1% and the viability, T/C (second compound 0.316 µM, first compound 0.00316 µM) was 26.7%. The viability, T/C (second compound 0.316 µM, first compound 0.01 µM) was 26.3%, the viability, T/C [9] was 18.3% and the viability, T/C [10] was 15.8%. For the same compound, the viability, T/C (second compound 1 µM, first compound 0.000316 µM) was 18.6%, the viability, T/C (second compound 1 µM, first compound 0.001 µM) was 15.8% and the viability, T/C (second compound 1 µM, first compound 0.00316 µM) was 14.3%. It also gave a viability, T/C (second compound 1 µM, first compound 0.01 µM) of 14.8%, a viability, T/C [11] of 15.5% and a viability, T/C [12] of 10.1%.
Work on `CNC(=O)c1ccc(N2C(=S)N(c3ccc(C#N)c(C(F)(F)F)c3)C(=O)C2(C)C)cc1F` + CC(Nc1ccc2c(c1)OCCn1cc(N3C(=O)OCC3C(F)F)nc1-2)C(N)=O yielded an IC50 (second compound 0.00316 µM) greater than 10000 nM, an IC50 (second compound 0.01 µM) greater than 10000 nM and an IC50 (second compound 0.0316 µM) greater than 10000 nM. The IC50 (second compound 0.1 µM) was less than 31.6 nM, the IC50 (second compound 0.316 µM) was less than 31.6 nM and the IC50 (second compound 1 µM) was less than 31.6 nM. The viability, T/C [1] was 94.3%, the viability, T/C [2] was 78.7% and the viability, T/C (second compound 0.00316 µM, first compound 0.316 µM) was 97.5%. It also gave a viability, T/C (second compound 0.00316 µM, first compound 1 µM) of 104%, a viability, T/C (second compound 0.00316 µM, first compound 3.16 µM) of 82.2% and a viability, T/C (second compound 0.00316 µM, first compound 10 µM) of 62.4%. For the same compound, the viability, T/C [3] was 90.3%, the viability, T/C [4] was 74.3% and the viability, T/C (second compound 0.01 µM, first compound 0.316 µM) was 82.6%. It also gave a viability, T/C (second compound 0.01 µM, first compound 1 µM) of 97.5%, a viability, T/C (second compound 0.01 µM, first compound 3.16 µM) of 82.3% and a viability, T/C (second compound 0.01 µM, first compound 10 µM) of 63.4%. The viability, T/C [5] was 61.1%, the viability, T/C [6] was 62.5% and the viability, T/C (second compound 0.0316 µM, first compound 0.316 µM) was 59%. For the same compound, the viability, T/C (second compound 0.0316 µM, first compound 1 µM) was 75.8%, the viability, T/C (second compound 0.0316 µM, first compound 3.16 µM) was 79.8% and the viability, T/C (second compound 0.0316 µM, first compound 10 µM) was 44.8%. The viability, T/C [7] was 35.2%, the viability, T/C [8] was 39.1% and the viability, T/C (second compound 0.1 µM, first compound 0.316 µM) was 44.9%. The viability, T/C (second compound 0.1 µM, first compound 1 µM) was 41.9%, the viability, T/C (second compound 0.1 µM, first compound 3.16 µM) was 42.5% and the viability, T/C (second compound 0.1 µM, first compound 10 µM) was 27.9%. For the same compound, the viability, T/C [9] was 20.5%, the viability, T/C [10] was 23.9% and the viability, T/C (second compound 0.316 µM, first compound 0.316 µM) was 21.2%. It also gave a viability, T/C (second compound 0.316 µM, first compound 1 µM) of 26.2%, a viability, T/C (second compound 0.316 µM, first compound 3.16 µM) of 48.8% and a viability, T/C (second compound 0.316 µM, first compound 10 µM) of 19.3%. The viability, T/C [11] was 16.9%, the viability, T/C [12] was 11.8% and the viability, T/C (second compound 1 µM, first compound 0.316 µM) was 16.3%. The viability, T/C (second compound 1 µM, first compound 1 µM) was 19.5%, the viability, T/C (second compound 1 µM, first compound 3.16 µM) was 17.2% and the viability, T/C (second compound 1 µM, first compound 10 µM) was 12.3%.

— PubChem BioAssay AID1963973 (Molecular Pharmacology Branch, DTP, NCI, 2024)
